Results from patent US12678515B2, “Lipids and lipid nanoparticle formulations for delivery of nucleic acids” (Acuitas Therapeutics, Inc., priority 2015, dated 2026).

Test system: luciferase expression in the liver
Test: In vivo luciferase mRNA expression rodent model (lipid nanoparticle formulations of cationic lipids)
Parameters: species or system mice
Settings: luciferase expression in liver 4 hours after tail vein injection; LNP 50% cationic lipid/10% DSPC/38.5% cholesterol/1.5% PEG-DMA; MC3 activity=1
Method: Cationic lipid (MC3), DSPC, cholesterol and PEG-lipid were solubilized in ethanol at a molar ratio of 50:10:38.5:1.5. Lipid nanoparticles (LNP) were prepared at a total lipid to mRNA weight ratio of approximately 10:1 to 30:1. Briefly, the mRNA was diluted to 0.2 mg/mL in 10 to 50 mM citrate buffer, pH 4. Syringe pumps were used to mix the ethanolic lipid solution with the mRNA aqueous solution at a ratio of about 1:5 to 1:3 (vol/vol) with total flow rates above 15 mL/min. The ethanol was then removed and the external buffer replaced with PBS by dialysis. Finally, the lipid nanoparticles were filtered through a 0.2 μm pore sterile filter. Lipid nanoparticle particle size was approximately 55-95 nm diameter, and in some instances approximately 70-90 nm diameter as determined by quasi-elastic light scattering using a Malvern Zetasizer Nano ZS (Malvern, UK) or by using a Nicomp 370 submicron particle sizer (Santa Barbara, CA).
Studies were performed in 6-8 week old female C57BL/6 mice (Charles River) 8-10 week old CD-1 (Harlan) mice (Charles River) according to guidelines established by an institutional animal care committee (ACC) and the Canadian Council on Animal Care (CCAC). Varying doses of mRNA-lipid nanoparticle were systemically administered by tail vein injection and animals euthanized at specific time points (1, 2, 4, 8 and 24 hrs) post-administration. Liver and spleen were collected in pre-weighed tubes, weights determined, immediately snap frozen in liquid nitrogen and stored at −80° C. until processing for analysis.
For liver, approximately 50 mg was dissected for analyses in a 2 mL FastPrep tubes (MP Biomedicals, Solon OH). ¼″ ceramic sphere (MP Biomedicals) was added to each tube and 500 μL of Glo Lysis Buffer—GLB (Promega, Madison WI) equilibrated to room temperature was added to liver tissue. Liver tissues were homogenized with the FastPrep24 instrument (MP Biomedicals) at 2×6.0 m/s for 15 seconds. Homogenate was incubated at room temperature for 5 minutes prior to a 1:4 dilution in GLB and assessed using SteadyGlo Luciferase assay system (Promega). Specifically, 50 μL of diluted tissue homogenate was reacted with 50 μL of SteadyGlo substrate, shaken for 10 seconds followed by 5 minute incubation and then quantitated using a CentroXS^3 LB 960 luminometer (Berthold Technologies, Germany). The amount of protein assayed was determined by using the BCA protein assay kit (Pierce, Rockford IL). Relative luminescence units (RLU) were then normalized to total μg protein assayed. To convert RLU to ng luciferase a standard curve was generated with QuantiLum Recombinant Luciferase (Promega). Based on the data provided in FIG. 1, the four-hour time point was chosen for efficacy evaluation of the lipid formulations (see Example 3). […]

`CCCCC/C=C\C/C=C\CCCCCCCCC(CCCCCCCC/C=C\C/C=C\CCCCC)OC(=O)CCCN(C)C` [MC3, reference compound] was tested, and the “Activity Relative to MC3” value was 1.
`CCCCCCCCC(CCCCCC)COC(=O)CCCCCCCCCCCC(CCCCCCCCCCCC(=O)OCC(CCCCCC)CCCCCCCC)OC(=O)CCCN(C)C` (stereo not shown) [Compound 2, 1,25-di-(2′-hexyldecyl)13-{[4-(dimethylamino)butanoyl]oxy}pentacosanedioate] was tested, and the “Activity Relative to MC3” value was roughly 0.75.
For `CCCCCCCCC(CCCCCC)C(=O)OCCCCCCCCCC(CCCCCCCCCOC(=O)C(CCCCCC)CCCCCCCC)OC(=O)CCCN(C)C` (stereo not shown) [Compound 1, 10-{[4′-(dimethylamino)butanoyl]oxy}-19-[(2-hexyldecanoyl)oxy]nonadecyl 2-hexyldecanoate], the “Activity Relative to MC3” value was roughly 2.
In the case of `CCCCCCCCC(CCCCCC)C(=O)OCCCCCCCCCC(CCCCCCCCCOC(=O)C(CCCCCC)CCCCCCCC)OC(=O)CCCCN(C)C` (stereo not shown) [Compound 3, 10-{[5-(dimethylamino)pentanoyl]oxy}-19-[(2-hexyldecanoyl)oxy]nonadecyl 2-hexyldecanoate], the “Activity Relative to MC3” value was roughly 8.
